Laboratory results: ChEMBL document CHEMBL5303711, “ECBD screening data for assay EOS300108” (2023)
Structures can show the parent of a compound that is named as a salt. Activity calls are given as the source filed them. How the calls were made is not given here.

Test: Cytotoxicity activity against human HepG2 cells assessed by CellTiter-Glo luminescent cell viability assay.
Format: toxicity, cell-based
Parameters: assay stage confirmatory assay, source tissue liver
Conditions: HepG2 cells, read-out: IC50 relative
With `Cc1cc(C)c(C(N)=O)c(SCC(=O)N(CCC#N)c2ccc3c(c2)OCCO3)n1` the CC50 was 4.3 µM (active). With `COc1ccc2c(c1)/C(=C/c1cnc[nH]1)C(=O)N2` [SU-9516] the CC50 was 8.9 µM (active). In the case of `Cc1cc2c(=O)nc(-c3cc(OCC(F)F)ccn3)[nH]c2s1`, the CC50 is reported as 2.2 µM (active). With `Cc1n[nH]c(C)c1S(=O)(=O)N1CCCC(C(=O)Nc2ccc(Br)cc2)C1` (stereo not drawn) the CC50 was 26.3 µM (inactive). For `CNc1cccc(NC(=O)N[C@@H]2N=C(c3ccccn3)c3ccccc3N(CC(=O)C(C)(C)C)C2=O)c1` [NETAZEPIDE], the CC50 was 18.4 µM (inactive). For `CCOc1cc(C(Nc2cc(C)ccn2)c2ccc3cccnc3c2O)ccc1OC` (stereo not drawn), the CC50 was 3.7 µM (active). For `Cc1noc2ncnc(N3CCC(C(=O)N4CCN(c5cccc(Cl)c5)CC4)CC3)c12`, the CC50 was 9.6 µM (active). With `CCN1CCN(CCNC(=O)c2cn3ccnc(-c4ccc(C)cc4)c3n2)CC1` the CC50 was 29 µM (inactive). With `Cc1c(C(=O)c2cccc3ccccc23)c2cccc3c2n1[C@H](CN1CCOCC1)CO3` the CC50 was 3.2 µM (active). For `N#Cc1ccc(NC(=O)Nc2cnn(-c3ccccc3)c2)cc1`, the CC50 was 8.9 µM (active). In the case of `CNC(=O)c1nn(C)c2c1C(C)(C)Cc1cnc(Nc3ccc(N4CCN(C)CC4)cc3)nc1-2` [MILCICLIB], the CC50 is reported as 0.9 µM (active). With `Cc1ccc(S(=O)(=O)N[C@@H](Cc2ccccc2)C(=O)CCl)cc1` [TPCK] the CC50 was 7.9 µM (active). With `Cc1cc(Nc2ccc(NC(=O)c3ccc(Nc4ccnc5ccccc45)cc3)cc2)nc(N)n1` the CC50 was 0.4 µM (active). For `N#CCNC(=O)c1ccc(-c2ccnc(Nc3ccc(N4CCOCC4)cc3)n2)cc1` [MOMELOTINIB], the CC50 was 5.2 µM (active). In the case of `CC(C)NC(=O)[C@H]1CC[C@@H](n2/c(=N/C(=O)c3ccc(F)cc3)[nH]c3ccc(CN4CCC(C(C)(C)O)CC4)cc32)CC1`, the CC50 is reported as 0.8 µM (active). With `CCCOc1ccccc1-n1c(C)cn2c3c(=O)n(C)c(=O)n(C)c3nc12` the CC50 was 6.7 µM (active). For `Cc1cccc(NC(=O)C2CCN(S(=O)(=O)c3ccc4c(c3)CC(C)N4C(=O)C3CC3)CC2)n1` (stereo not drawn), the CC50 was 1.7 µM (active). For `O=C(Cn1ncc(Cl)c(Cl)c1=O)NCCC1=CCCCC1`, the CC50 was 4.4 µM (active). For `O=C(Nc1cccc(Cl)c1)Nc1ncc(CCNc2ncnc3ccsc23)s1` [SNS-314 MESYLATE], the CC50 was 10.1 µM (active). With `OC(c1ccccc1)C(CN1CCCC1)c1ccccc1` (stereo not drawn) the CC50 was 8.8 µM (active). With `COc1cc2ncnc(Nc3cccc(Br)c3)c2cc1OC` the CC50 was 6.7 µM (active). With `O=C(N[C@H]1CCCc2sccc21)c1cccc2c1OCO2` the CC50 was 6.5 µM (active). With `CC(C)C[C@H](NC(=O)CNC(=O)c1cc(Cl)ccc1Cl)B(O)O` [IXAZOMIB] the CC50 was 0.1 µM (active). With `CC(C)(C)NC(=O)NC(=O)CNc1ccccc1C(=O)Nc1ccc(F)cc1` the CC50 was 50 µM (inactive). For `CS(=O)(=O)N1CCN(Cc2cc3nc(-c4cccc5[nH]ncc45)nc(N4CCOCC4)c3s2)CC1` [PICTILISIB], the CC50 was 0.9 µM (active). With `CC(C)N1CCN(Cc2cnc(-c3cc(-c4cccc5[nH]ccc45)cc4[nH]ncc34)o2)CC1` [NEMIRALISIB] the CC50 was 4.4 µM (active). For `Cc1c(C(=O)Nc2ncccc2O)oc2ccccc12`, the CC50 was 1.7 µM (active). For `Fc1ccc([C@@H]2CCNC[C@H]2COc2ccc3c(c2)OCO3)cc1` [PAROXETINE HYDROCHLORIDE], the CC50 was 4.1 µM (active). With `CCCc1cc(C)[nH]c(=O)c1CNC(=O)c1cc(-c2ccc(N3CCN(C)CC3)nc2)nc2c1cnn2C(C)C` the CC50 was 7.5 µM (active). For `O=C(COc1ccc(F)cc1)N1CCN(c2ncnc3c(F)cccc23)CC1`, the CC50 was 9.7 µM (active). With `Cc1csc(CCNc2cc(N3CCC[C@@H]3CO)ncn2)n1` the CC50 was 2.4 µM (active). For `CC(C(=O)NCCN(C)C)C1CCN(C(=O)c2cc3cc(Cl)ccc3[nH]2)CC1` (stereo not drawn), the CC50 was 6.3 µM (active). In the case of `O=C(Nc1cccc(Nc2ncc(Br)c(NCCc3c[nH]cn3)n2)c1)N1CCCC1`, the CC50 is reported as 3.3 µM (active). In the case of `CCN1CCN(C(=O)Cc2ccc(Nc3ncc(F)c(Nc4ccc(C(=O)Nc5ccccc5Cl)cc4)n3)cc2)CC1`, the CC50 is reported as 1.8 µM (active). With `CC(C)CCOc1ccc(CN(CC(C)(C)N(C)C)S(C)(=O)=O)cc1` the CC50 was 12.2 µM (active). For `CC(C)c1ccc(S(=O)(=O)/N=C2/C=C(Sc3nc[nH]n3)C(=O)c3ccccc32)cc1`, the CC50 was 5.8 µM (active). With `Nc1nc(S)c2ncn(C3OC(CO)C(O)C3O)c2n1` (stereo not drawn) the CC50 was 2.5 µM (active). In the case of `CCOc1cc(/C=C2/C(=O)N(c3ccccc3)N=C2C)cc(Cl)c1OCC(=O)OC`, the CC50 is reported as 12.3 µM (active). With `CC(C)c1nn(-c2ccccc2)cc1CNCC(C)(C)N1CCN(C)CC1` the CC50 was 4.9 µM (active). In the case of `CCOc1ccccc1-n1c(C(C)N2CCN(C(=O)COc3ccc(Cl)cc3)CC2)nc2ccccc2c1=O` (stereo not drawn) [ERASTIN], the CC50 is reported as 1.8 µM (active). With `C#CCC(Cc1cnc2nc(N)nc(N)c2n1)c1ccc(C(=O)N[C@@H](CCC(=O)O)C(=O)O)cc1` (stereo partly drawn) [PRALATREXATE] the CC50 was < 0.1 µM (active). In the case of `c1ccc2c(c1)[I+]c1ccccc1-2` [DIPHENYLENEIODONIUM CHLORIDE], the CC50 is reported as 0.2 µM (active). With `CC(=O)Nc1cccc(NC(=O)c2cc3ccccc3cc2O)c1` the CC50 was 1.6 µM (inactive). In the case of `CN(Cc1cnc2nc(N)nc(N)c2n1)c1ccc(C(=O)N[C@@H](CCC(=O)O)C(=O)O)cc1` [METHOTREXATE], the CC50 is reported as < 0.1 µM (active). With `CN1CCC(c2c[nH]c3ccc(NC(=O)c4ccc(F)cc4)cc23)CC1` the CC50 was 14.2 µM (inactive). For `OCC1CCCN(CCNCc2ccc(Cl)c(Cl)c2)C1` (stereo not drawn), the CC50 was 5.7 µM (active). With `COc1ccc(OC[C@@H](O)CN(C)Cc2ccc(C)o2)c(C(C)(C)C)c1` the CC50 was 21.3 µM (inactive). With `CC(C)c1ccc(CN(CCCN(C)C)CCCN(C)C)cc1` the CC50 was 8.8 µM (active). In the case of `CN(C)CCCN(CCCN(C)C)CC(c1ccccc1)c1ccccc1`, the CC50 is reported as 7.2 µM (active). In the case of `Cc1cc(C)cc(N2CCN(C(=O)c3cnn4ccccc34)CC2=O)c1`, the CC50 is reported as 0.7 µM (active). In the case of `O=C(Nc1cccc2cccnc12)c1cccc2cn[nH]c12`, the CC50 is reported as 50 µM (inactive). With `CS(=O)(=O)N1CCc2ccc(NC(=O)Nc3cccc(C#N)c3)cc21` the CC50 was 9.7 µM (active). In the case of `CCCCc1ccc(-c2cnn3cccnc23)cc1`, the CC50 is reported as 8.3 µM (inactive). In the case of `COc1ccccc1-c1nnc(-c2ccccc2O)o1`, the CC50 is reported as 5.3 µM (active). For `CC[C@H]1CN(c2ccccc2)CCN1c1ccnc(C(C)C)n1`, the CC50 was 10.7 µM (active). For `Cc1ncc(-c2ccnc(Nc3ccc(S(C)(=O)=O)cc3)n2)n1C(C)C` [AZD-5438], the CC50 was 0.6 µM (active). In the case of `Cn1c(=O)n(-c2ccc(C(C)(C)C#N)cc2)c2c3cc(-c4cnc5ccccc5c4)ccc3ncc21` [DACTOLISIB TOSYLATE], the CC50 is reported as 0.1 µM (active). In the case of `CCS(=O)(=O)N1CCc2ccc(NC(=O)Nc3cccc(C)c3)cc21`, the CC50 is reported as 2.2 µM (active). With `Cc1ccc(C(=O)Nc2ccc(CN3CCN(C)CC3)c(C(F)(F)F)c2)cc1C#Cc1cnc2cccnn12` [PONATINIB] the CC50 was 0.3 µM (active). With `CCOC(=O)N1c2ccc(C(F)(F)F)cc2[C@@H](N(Cc2cc(C(F)(F)F)cc(C(F)(F)F)c2)C(=O)OC)C[C@H]1CC` [TORCETRAPIB] the CC50 was 6.4 µM (active). For `CCOc1ccccc1NC(=O)COc1cccc2c(=O)n(C)ccc12`, the CC50 was 1.4 µM (inactive). With `COc1cc(OC)cc(-c2nnc(Nc3nc4c(F)cccc4s3)o2)c1` the CC50 was 27.8 µM (inactive). For `CN[C@H]1CCCN(S(=O)(=O)c2ccc(Cl)cc2F)C1`, the CC50 was 17.1 µM (inactive). With `COc1ccc(-c2cnc3ccc(N4CCCC4)nn23)cc1OC` the CC50 was 4.3 µM (active). In the case of `O=C1c2ccccc2C(=O)c2oc(-c3ccccc3)nc21`, the CC50 is reported as 2.6 µM (active). In the case of `N#Cc1ccc2[nH]cc(CCCCN3CCN(c4ccc5oc(C(N)=O)cc5c4)CC3)c2c1` [VILAZODONE], the CC50 is reported as 6.1 µM (active). For `CCCCOc1ccc(-c2cc3c4nnc(CCC(=O)N5CCN(CC)CC5)n4ccn3n2)cc1`, the CC50 was 4.2 µM (active). For `c1ccc(CCCN2CCN(CCOC(c3ccccc3)c3ccccc3)CC2)cc1`, the CC50 was 9.1 µM (active). For `Oc1cc(O)c2sc(Nc3ccc(F)cc3)nc2n1`, the CC50 was 5.1 µM (active). In the case of `Oc1c(Cl)cc(Cl)cc1Sc1cc(Cl)cc(Cl)c1O` [BITHIONOL], the CC50 is reported as 14.6 µM (inactive). With `c1ccc(-c2nc3n(n2)Cc2ccccc2-3)cc1` the CC50 was 2.7 µM (active). For `COc1ccccc1-c1cc(Nc2cccc(CS(N)(=O)=O)c2)ncn1`, the CC50 was 2.5 µM (active). For `O=C(NOCCO)c1ccc2cncn2c1Nc1ccc(I)cc1F` [GDC-0623], the CC50 was < 0.1 µM (active). In the case of `COCCOc1ccc2c(c1)ncn2-c1ccc2cccc(N3CCC(N)CC3)c2n1`, the CC50 is reported as 8.2 µM (active). In the case of `CC(C)(C#N)c1ccc(N2C(=O)OCc3cnc4ccc(-c5cnc6ccccc6c5)cc4c32)cc1`, the CC50 is reported as 7 µM (active). With `N[C@@H](Cc1ccccc1)C(=O)N1C/C(=C\c2ccc(Cl)c(Cl)c2)C(=O)/C(=C/c2ccc(Cl)c(Cl)c2)C1` the CC50 was 7.9 µM (active). With `O=C(Cc1cnn(-c2ccccc2)c1)N1CCN(S(=O)(=O)c2ccc3c(c2)OCCCO3)CC1` the CC50 was 8.6 µM (active). For `CN(C)c1cccc(S(=O)(=O)Nc2ccc3ncccc3c2)c1`, the CC50 was 3.3 µM (active). With `COc1c(Br)cc(Cl)cc1S(=O)(=O)N1CCC[C@H](N)C1` the CC50 was 16.1 µM (inactive). For `Cc1cc(N2C[C@@H](C)N[C@@H](C)C2)ncc1-c1ccc(-c2nc3c(ccn3C)c(=O)[nH]2)cc1`, the CC50 was 1.8 µM (active). For `c1ccc(Cn2c(-c3ccc(OC[C@H](C4CCNCC4)n4c(-c5ccccc5)nc5ccccc54)cc3)nc3ccccc32)cc1`, the CC50 was 1.6 µM (active). For `CC(C)c1ccccc1OCC(=O)Nc1cccnc1`, the CC50 was 4 µM (active). In the case of `CC(C)(C)n1ncc(N2CCN(c3ccc(C#N)cc3F)CC2)c(Cl)c1=O`, the CC50 is reported as 22.7 µM (active). With `CC(C)c1cc(N2CCN(c3ccc(C#N)cc3)CC2)ncn1` the CC50 was 5.7 µM (active). For `CC[C@H](C)n1cc(C)c2c(C(=O)NCc3c(C)cc(C)[nH]c3=O)cc(-c3ccc(N4CCNCC4)nc3)cc21` [GSK2816126], the CC50 was 4.9 µM (active). In the case of `CC(C)N(CCC(=O)c1ccc2ccccc2c1)Cc1ccccc1`, the CC50 is reported as 12.9 µM (active). For `O=c1c2ccccc2cnn1-c1nc2ccccc2[nH]1`, the CC50 was 5.2 µM (active). With `CC1(C)CC(=O)c2cn(-c3ccccc3)c(=O)c(C(=O)Nc3cccnc3)c2C1` the CC50 was 9.2 µM (inactive).
